# *1 amine or outer side, *2 acyl side, *3 side chain or, on linkers, in order; H or OH if unused. Where a SMILES comes first, the peptide text is derived from it. Side-chain parts run from the residue outwards. [ ]: non-standard residue; d: D form. The star is where a group is joined. ξ: configuration not given here. Oic(3aξ,7aξ) = O=C(O)[C@@H]1CC2CCCCC2N1; X1 = O=C([C@H](CCCS)N[*:1])[*:2]; hArg = N=C(N)NCCCC[C@H](N)C(=O)O; hCys = N[C@@H](CCS)C(=O)O; X2 = N[C@@H](CCCS)C(=O)*; Dab = NCC[C@H](N)C(=O)O; Dap = NC[C@H](N)C(=O)O; X3 = CSC[C@H](N)C(=O)*; Mpa = O=C(O)CCS
# Target: VEGA-NRP1 (Homo sapiens, UniProt O14786)
# Sequence (P15692 whole entry): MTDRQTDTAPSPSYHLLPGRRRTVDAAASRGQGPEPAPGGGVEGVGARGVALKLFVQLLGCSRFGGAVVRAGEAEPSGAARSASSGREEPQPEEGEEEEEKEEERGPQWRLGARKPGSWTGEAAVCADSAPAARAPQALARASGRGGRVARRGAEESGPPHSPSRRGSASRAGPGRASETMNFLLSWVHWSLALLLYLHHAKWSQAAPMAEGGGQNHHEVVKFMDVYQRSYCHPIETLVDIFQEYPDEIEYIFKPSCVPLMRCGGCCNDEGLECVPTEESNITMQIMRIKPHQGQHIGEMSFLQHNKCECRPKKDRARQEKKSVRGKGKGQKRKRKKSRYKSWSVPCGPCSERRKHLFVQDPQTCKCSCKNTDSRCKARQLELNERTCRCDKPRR
# Sequence (O14786 whole entry): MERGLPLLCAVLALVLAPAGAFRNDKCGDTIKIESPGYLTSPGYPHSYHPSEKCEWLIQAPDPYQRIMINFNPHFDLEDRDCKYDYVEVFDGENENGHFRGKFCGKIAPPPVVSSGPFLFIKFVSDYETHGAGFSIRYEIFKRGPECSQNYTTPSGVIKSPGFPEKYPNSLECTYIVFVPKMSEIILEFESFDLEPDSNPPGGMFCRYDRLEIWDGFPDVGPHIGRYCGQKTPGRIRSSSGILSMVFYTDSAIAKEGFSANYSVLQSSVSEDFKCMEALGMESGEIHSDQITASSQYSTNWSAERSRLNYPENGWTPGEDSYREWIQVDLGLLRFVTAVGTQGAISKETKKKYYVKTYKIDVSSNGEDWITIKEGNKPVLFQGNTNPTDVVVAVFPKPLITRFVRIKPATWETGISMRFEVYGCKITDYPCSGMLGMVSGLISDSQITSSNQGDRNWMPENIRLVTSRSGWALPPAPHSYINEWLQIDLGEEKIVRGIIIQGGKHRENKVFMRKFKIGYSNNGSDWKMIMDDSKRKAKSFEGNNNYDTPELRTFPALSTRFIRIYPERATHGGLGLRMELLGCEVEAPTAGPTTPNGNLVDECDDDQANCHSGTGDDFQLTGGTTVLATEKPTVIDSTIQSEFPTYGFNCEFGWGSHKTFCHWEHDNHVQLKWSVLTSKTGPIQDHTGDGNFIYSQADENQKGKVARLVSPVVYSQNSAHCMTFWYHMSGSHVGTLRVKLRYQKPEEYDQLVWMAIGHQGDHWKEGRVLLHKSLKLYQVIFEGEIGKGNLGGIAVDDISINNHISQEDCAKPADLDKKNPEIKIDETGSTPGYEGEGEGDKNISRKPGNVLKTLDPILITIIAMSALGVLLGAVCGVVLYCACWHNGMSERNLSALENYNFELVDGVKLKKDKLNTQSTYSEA
# Test: Inhibition of human biotinylated-VEGFA165 binding to recombinant human NRP-1 measured after 2 hrs by chemiluminescent based ELISA
# Format: protein assay
# Conditions: read-out: IC50
row,Compound,IC50 [nM]
1,"CSC[C@H](N)C(=O)N[C@@H](CCCCNC(=O)[C@@H](N)CCCCNC(=N)N)C(=O)N[C@@H](CCN)C(=O)N1C2CCCCC2C[C@H]1C(=O)N[C@@H](CCCNC(=N)N)C(=O)O (stereo partly drawn) (H-C(Me)K(hArg)[Dab][Oic(3aξ,7aξ)]R-OH)",2480
2,"N=C(N)NCCCC[C@H](NC(=O)[C@@H](N)CN)C(=O)NCCCC[C@H](N)C(=O)N[C@@H](CCN)C(=O)N1C2CCCCC2C[C@H]1C(=O)N[C@@H](CCCNC(=N)N)C(=O)O (stereo partly drawn) (H-K([hArg-Dap])[Dab][Oic(3aξ,7aξ)]R-OH)",330
3,"N=C(N)NCCCC[C@H](NC(=O)CCS)C(=O)NCCCC[C@H](N)C(=O)N[C@@H](CCN)C(=O)N1C2CCCCC2C[C@H]1C(=O)N[C@@H](CCCNC(=N)N)C(=O)O (stereo partly drawn) (H-K([hArg-Mpa])[Dab][Oic(3aξ,7aξ)]R-OH)",2170
4,"N=C(N)NCCCC[C@H](NC(=O)[C@@H](N)CCCS)C(=O)NCCCC[C@H](N)C(=O)N[C@@H](CCN)C(=O)N1C2CCCCC2C[C@H]1C(=O)N[C@@H](CCCNC(=N)N)C(=O)O (stereo partly drawn) (H-K([hArg-X2])[Dab][Oic(3aξ,7aξ)]R-OH)",1330
5,"CSC[C@H](N)C(=O)N[C@@H](CCCCNC(=N)N)C(=O)NCCCC[C@H](N)C(=O)N[C@@H](CCN)C(=O)N1C2CCCCC2C[C@H]1C(=O)N[C@@H](CCCNC(=N)N)C(=O)O (stereo partly drawn) (H-K([hArg-X3])[Dab][Oic(3aξ,7aξ)]R-OH)",2820
6,"N=C(N)NCCCC[C@H](NC(=O)[C@@H](N)CCS)C(=O)NCCCC[C@H](N)C(=O)N[C@@H](CCN)C(=O)N1C2CCCCC2C[C@H]1C(=O)N[C@@H](CCCNC(=N)N)C(=O)O (stereo partly drawn) (H-K([hArg-hCys])[Dab][Oic(3aξ,7aξ)]R-OH)",630
7,"N=C(N)NCCCC[C@H](N)C(=O)NCCCC[C@H](NC(=O)[C@@H](N)CN)C(=O)N[C@@H](CCN)C(=O)N1C2CCCCC2C[C@H]1C(=O)N[C@@H](CCCNC(=N)N)C(=O)O (stereo partly drawn) (H-[Dap]K(hArg)[Dab][Oic(3aξ,7aξ)]R-OH)",440
8,"N=C(N)NCCCC[C@H](N)C(=O)NCCCC[C@H](NC(=O)[C@@H](N)CCCS)C(=O)N[C@@H](CCN)C(=O)N1C2CCCCC2C[C@H]1C(=O)N[C@@H](CCCNC(=N)N)C(=O)O (stereo partly drawn) (H-[X1]K(hArg)[Dab][Oic(3aξ,7aξ)]R-OH)",890
9,"N=C(N)NCCCC[C@H](N)C(=O)NCCCC[C@H](NC(=O)[C@@H](N)CCS)C(=O)N[C@@H](CCN)C(=O)N1C2CCCCC2C[C@H]1C(=O)N[C@@H](CCCNC(=N)N)C(=O)O (stereo partly drawn) (H-[hCys]K(hArg)[Dab][Oic(3aξ,7aξ)]R-OH)",700
10,"N=C(N)NCCCC[C@H](NC(=O)[C@@H](N)CO)C(=O)NCCCC[C@H](N)C(=O)N[C@@H](CCN)C(=O)N1C2CCCCC2C[C@H]1C(=O)N[C@@H](CCCNC(=N)N)C(=O)O (stereo partly drawn) (HELM PEPTIDE1{K.[Dab].[O=C([C@@H]1CC2CCCCC2N1[*:1])[*:2]].R}|PEPTIDE2{S.[N=C(N)NCCCC[C@H](N[*:1])C(=O)[*:2]]}$PEPTIDE1,PEPTIDE2,1:R3-2:R2$$$V2.0)",810
11,"CC[C@H](N)C(=O)N[C@@H](CCCCNC(=N)N)C(=O)NCCCC[C@H](N)C(=O)N[C@@H](CCN)C(=O)N1C2CCCCC2C[C@H]1C(=O)N[C@@H](CCCNC(=N)N)C(=O)O (stereo partly drawn) (HELM PEPTIDE1{K.[Dab].[O=C([C@@H]1CC2CCCCC2N1[*:1])[*:2]].R}|PEPTIDE2{[Abu].[N=C(N)NCCCC[C@H](N[*:1])C(=O)[*:2]]}$PEPTIDE1,PEPTIDE2,1:R3-2:R2$$$V2.0)",2480
12,"N=C(N)NCCCC[C@H](N)C(=O)NCCCC[C@H](NC(=O)[C@@H](N)CO)C(=O)N[C@@H](CCN)C(=O)N1C2CCCCC2C[C@H]1C(=O)N[C@@H](CCCNC(=N)N)C(=O)O (stereo partly drawn) (HELM PEPTIDE1{S.K.[Dab].[O=C([C@@H]1CC2CCCCC2N1[*:1])[*:2]].R}|PEPTIDE2{[N=C(N)NCCCC[C@H](N)C(=O)[*:2]]}$PEPTIDE1,PEPTIDE2,2:R3-1:R2$$$V2.0)",1540
13,"N=C(N)NCCCC[C@H](N)C(=O)NCCCC[C@H](NC(=O)CCS)C(=O)N[C@@H](CCN)C(=O)N1C2CCCCC2C[C@H]1C(=O)N[C@@H](CCCNC(=N)N)C(=O)O (stereo partly drawn) ([Mpa]K(hArg)[Dab][Oic(3aξ,7aξ)]R-OH)",1130

# Reference: ChEMBL document CHEMBL5365540, “Structure-activity relationship studies and biological properties evaluation of peptidic NRP-1 ligands: Investigation of N-terminal cysteine importance” (Bioorg Med Chem, 2023)
